EP1222180B1, “ENANTIOMERIC COMPOUNDS FOR TREATMENT OF CARDIAC ARRHYTHMIAS AND METHODS OF USE” (ARYx Therapeutics, priority 1999, dated 2001)

Assays:
[1] = format: in vitro ADME; conditions: human; for hydrolysis half-life: plasma
Experimental: Venous blood (60 ml) was collected in heparinized 15-ml Vacutainer® tubes from the forearm of five human volunteers. Each tube contained 1,000 units of heparin sodium salt. The blood was immediately centrifuged at 2,000 g for 10 minutes and the plasma was collected. Immediately after collection, the plasma was divided into 2-ml aliquots in borosilicate glass tubes (5-ml capacity) capped with a plastic stopper. The tubes were then equilibrated in a 37°C-water bath for at least 15 minutes before the test samples were added. Stock solutions were prepared by dissolving 25 µmoles (about 18 mg) of each of the test compounds in 10 ml of deionized water. To each of the glass tubes containing 2 ml of fresh plasma, equilibrated at 37°C, was added 40 µl of the stock solutions (one test compound per tube). The plasma/stock solutions were then mixed. Samples (250 µl) were collected at time 0 (immediately after mixing test compounds in plasma) and then at 30, 60, 90, 120, 180, 240, and 300 minutes. The test tubes were capped, to avoid concentration due to evaporation, and left in the 37°C bath during the entire experiment. […] The tubes were then capped and vortexed, then kept at -20°C until analysis. […] The supernatant was collected for injection in the HPLC system. […] The detection wavelength was set at 242 nm, and the injected volume was 100 µL. The HPLC peaks were recorded, and the integrated values were plotted against time using the SIGMAPLOT software version 4.0 for WINDOWS. The resulting curves were fitted to a first-order exponential decay equation from which hydrolysis half-lives were calculated.

anesthetized rats = experiment: Anti-arrhythmic activity in anesthetized rats (benzene/adrenaline challenge, EKG recording); format: in vivo, Male Sprague-Dawley rats; conditions: for Heart rate (beats/minute) / Inhibition of VPB / Inhibition of tachycardia / Number of VPB / PR interval / QRS interval / QT interval: isolated enantiomer compared to the racemate, 4 mg/kg i.v. then 12 mg/kg/h for 2 hours; for anti-VPB activity at the end of the washout period: time 180 min; for protection against tachyarrhythmia (heart rate increase after adrenaline): administered from time 0 to time 120 minutes, Figure 3; for inhibition of the formation of ventricular premature beats (VPB): period of drug administration (time 0 to 120 min)
Experimental: Male Sprague-Dawley rats with body weights of 410 ± 30 g (Harlan Sprague Dawley Inc., Indianapolis, IN), were anesthetized with sodium pentobarbital (50 mg/kg i.p. - Butler Co., Columbus, OH). The skin from the neck area was removed and the jugular veins on both sides were cleared of connective tissue. Both jugular veins and the left carotid artery were isolated, and the latter tied up cranially with a surgical silk (ETHICON 4-0, Ethicon Inc., Australia). A plastic catheter ([…] 19ga, Vecton Dickinson, Sandy, UT), filled with a solution containing 10% sodium heparin (Elkins-Sinn Inc., Cherry Hill, NJ) in normal saline (100 U/ml sodium heparin), was introduced into the artery and fixed with surgical silk.
The catheter was connected to a pressure transducer (OHMEDA P23-XL, Ohmeda Medical Devices Division Inc., Madison, WI), filled with the same heparinized 0.9% NaCl solution, to register beat-to-beat arterial pressure. Needle electrodes were inserted s.c., and together with the pressure transducer, were joined to a GOULD TA 2000 recorder. Leads II, aVF and intraarterial blood pressure were monitored simultaneously throughout the experiments and recorded at certain intervals at 50 and 200 mm/sec paper speed.
The surgery was completed with an incision on the trachea where a short plastic tubing was placed and the animal was connected to a rodent-model ventilator (HARVARD Model 683, Harvard Apparatus, Inc., Holliston, MA). The animals were ventilated in a controlled way, depending on their spontaneous breathing frequency (55-75/min).
Drug administrations were carried out through i.v. catheters (TERUMO 24 GA*3/4", Terumo Medical Corp., Elkton, MD) inserted into both jugular veins. The left side was used for drug infusions by means of a syringe pump (SAGE INSTRUMENTS, Model 341B, Orion Res. Inc., Boston, MA), and the right side was used for adrenaline injections. The experiments were started after at least 15 minutes of stabilization. Benzene/adrenaline challenges were performed as follows: the respirator inlet was connected to a 50-ml bubbler half-full with benzene (Fisher Scientific, Fair Lawn, NJ) so that the inspired air was saturated with benzene vapor. The animal was ventilated with benzene vapor for two minutes. The tidal volume was typically 1 ml/100g of animal. During the last 30 seconds of benzene ventilation, 10 µg/kg adrenaline solution (in 0.9% NaCl) was injected into the right jugular vein. […] These arrhythmias could be elicited repeatedly. After three control VTs (at -30, -20 and -10 minutes), the test compounds were injected slowly during 30 seconds at a dose of 4 mg/kg i.v., immediately followed by a slow infusion of 12 mg/kg/h for 2 hours. The flow rate during the infusion period was 1 ml/h.
There were 5 rats per test compound and each animal served as its own control. The ability of the different drugs to suppress arrhythmias was tested against repeated benzene/adrenaline challenges at 5, 15, 30, 45, 60, 90, 120 (end of drug infusion), 135, 150, 165 and 180 minutes after the i.v. bolus injection. The amplitudes of the systolic arterial pressure and diastolic arterial pressure […] with the help of a pressure-amplitude calibration curve. Heart rate, number of ventricular complexes during the occurrence of VTs and VPBs, and certain ECG parameters (PR, QRS, QT durations and RR cycle lengths in msec) were also recorded and measured manually. At each time-point, 3-5 cycles were measured and the average values were entered into EXCEL Windows 97. The average and standard deviation for the five experimental animals per compound were calculated.

[2] = benzene vapors and adrenaline challenge, Figure 2

Row | Compound | Plasma half-life [1] [h] | hydrolysis half-life [1] [h] | time at which anti-VPB activity is lost (anesthetized rats; [2]) [min] | Heart rate (beats/minute) (anesthetized rats) | Inhibition of VPB (anesthetized rats) | Inhibition of tachycardia (anesthetized rats) | Number of VPB (anesthetized rats) | PR interval (anesthetized rats) | QRS interval (anesthetized rats) | QT interval (anesthetized rats) | anti-VPB activity at the end of the washout period (anesthetized rats; [2]) | effects on the QT segment of the EKG recording (Class-III properties) (anesthetized rats; Figure 4) | effects on the PR segment of the EKG recording (Class-IV activity) (anesthetized rats; Figure 6) | protection against tachyarrhythmia (heart rate increase after adrenaline) (anesthetized rats) | inhibition of the formation of ventricular premature beats (VPB) (anesthetized rats; [2])
1 | CC[C@@H](C)OC(=O)Cc1oc2ccccc2c1C(=O)c1cc(I)c(OCCN(CC)CC)c(I)c1 [R-2042, (R)-sec-Butyl 2-[3-(3,5-diiodo-4-(2-diethylaminoethyloxy)benzoyl)]benzofurane-acetate] | 5.0 | 5 | ~100 | lower | longer | longer | lower | shorter | no change | no change | completely inactive | – | – | – | –
2 | CC[C@H](C)OC(=O)Cc1oc2ccccc2c1C(=O)c1cc(I)c(OCCN(CC)CC)c(I)c1 [S-2042, (S)-sec-Butyl 2-[3-(3,5-diiodo-4-(2-diethylaminoethyloxy)benzoyl)]benzofurane-acetate] | 7.3 | 7.3 | – | lower | longer | longer | lower | longer | longer | longer | still retained part of its activity | the most potent and the longest acting | much more potent than R-2042 and the racemate R,S-2042 | more potent and longer acting then R-2042 | totally inhibited the formation of ventricular premature beats for the whole period of drug administration
3 | CC[C@H](C)OC(=O)Cc1oc2ccccc2c1C(=O)c1cc(I)c(OCCN(CC)CC)c(I)c1 [R,S-2042] | – | – | – | – | – | – | – | – | – | – | – | – | – | the least potent and shortest acting | even less active than either the R- or the S-isomer
4 | CC[C@H](C)OC(=O)Cc1oc2ccccc2c1C(=O)c1cc(I)c(OCCN(CC)CC)c(I)c1 [ATI-2042] | – | – | – | – | – | – | – | – | – | – | – | – | – | very good protection against this tachyarrhythmia | –
